Reference: patent publication US20240180158A1, “COMPOUNDS HAVING SELECTIVE INACTIVATION ACTIVITY” (University of North Carolina at Wilmington, priority 2021, published 2024)

Experiments:
C. albicans = experiment: Disk diffusion assay, C. albicans; assay type: cell-based; details: aromatic compounds
Protocol: (§1) The following disk diffusion assays were performed with example compounds described above to assess the ability of compounds to inhibit growth of microorganism. A compound that inhibits its target enzyme may perform poorly for a number of reasons, including low solubility in water or slow rate of transport across a microbial membrane.

C. albicans cells = experiment: C. albicans cell survival after exposure to inactivator; assay type: cell-based, Candida albicans; details: 1 h exposure; for cell survival rate, in words: several concentrations, survival after 48 h
Protocol: According to some embodiments, vinyl sulfone compounds contain both polar and, in some cases, charged functional groups that would make cellular uptake more challenging. However, to test the possibility that these compounds could inhibit the growth of C. albicans, two inactivators were selected for examination. […] The cells were plated and their survival rates were measured after 48 h relative to a control growth in the absence of inactivator.

[1] = molecular target: T1, ASADH from Candida albicans (CalASADH) (Candida albicans, UniProt Q5ALM0); experiment: Time-dependent inactivation of CalASADH (pre-incubation, residual activity); assay type: biochemical
T1 construct: His tag; made in house
T1 sequence (Q5ALM0 1-365): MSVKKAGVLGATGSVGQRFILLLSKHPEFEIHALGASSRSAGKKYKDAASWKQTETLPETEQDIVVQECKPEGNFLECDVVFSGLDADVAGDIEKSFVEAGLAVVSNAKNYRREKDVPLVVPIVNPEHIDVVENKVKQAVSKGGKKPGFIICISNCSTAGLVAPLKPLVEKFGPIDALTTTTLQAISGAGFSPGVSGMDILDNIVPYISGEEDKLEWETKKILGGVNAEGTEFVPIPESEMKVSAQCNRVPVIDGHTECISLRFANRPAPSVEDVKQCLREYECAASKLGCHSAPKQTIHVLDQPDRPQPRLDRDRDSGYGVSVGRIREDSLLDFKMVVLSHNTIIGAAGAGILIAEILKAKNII
Protocol: Aryl vinyl sulfones can be reasonably potent inhibitors of CalASADH, each inhibitor was then tested to determine if it would function as an enzyme inactivator. […] In most cases the residual enzyme activity, measured following a subsequent 20-fold dilution into an assay mixture, decreased to less than 5% of the control rate after incubation with low micromolar levels of these inactivators for 10 min or less. To determine the rate of inactivation the concentration of each vinyl sulfone in this pre-incubation mixture was then varied, centered around their initial measured Ki values. The rate of activity loss observed in each incubation reaction (kobs) was plotted against the inhibitor concentration to determine the inactivation rate (kinact) for that compound and the concentration that produces half-maximal inactivation (Ki). […] The proposed product of the reaction of the active site nucleophile (Cys-156) with this inactivator predicts key interactions of the p-nitro group with Arg-18 and Ser-187, and the protonation of the covalent intermediate by His-256. […] Reaction of this inactivator with the active site nucleophile (Cys-156) predicts keys interactions between its carboxyl group and several backbone amide nitrogens that would shift this adduct further from the active site base (His-256). […]

K pneumoniae = experiment: Disk diffusion assay, K pneumoniae; assay type: cell-based; details: aromatic compounds
Protocol: as §1

S. aureus = experiment: Disk diffusion assay, S. aureus; assay type: cell-based; details: aromatic compounds
Protocol: as §1

Row | SMILES | disk diffusion, C. albicans (C. albicans) | cell survival (C. albicans cells; 25 μM, survival after 48 h relative to control) | cell survival rate, in words (C. albicans cells) | ASADH inactivation, in words [1] | disk diffusion, K pneumoniae (K pneumoniae) | disk diffusion, S. aureus (S. aureus)
1 | CS(=O)(=O)/C=C/c1ccc2ccccc2n1 [2-MSV-quinoline, 2-(S-methylsulfonylvinyl)quinoline] | weak | – | – | – | – | –
2 | CS(=O)(=O)/C=C/c1ccc(C(=O)O)cc1 [4-(methylsulfonylvinyl)benzoic acid] | – | less than 75% | some decrease in cell survival rate | very good ASADH inactivator | – | –
3 | O=S(=O)(/C=C/c1ccncc1)c1ccccc1 [4-(phenylsulfonylvinyl)pyridine] | – | – | some decrease in cell survival rate | moderate inactivator | – | –
4 | CS(=O)(=O)/C=C/c1ccncc1 [4-MSV-pyridine, 4-(methylsulfonylvinyl)pyridine] | medium | – | – | – | medium | medium
